# Test results as given in patent publication US20250222168A1, “METHOD OF FORMING AN ALIGNED TISSUE OR TISSUE CONSTRUCT, A TISSUE OR TISSUE CONSTRUCT, AND BIOINK” (PRESIDENT AND FELLOWS OF HARVARD COLLEGE, priority 2022, published 2025).
# What was measured:
# [1] = system: aOBBs (anisotropic organ building blocks of hiPSC-CMs and hNDFs); test: aOBB compaction upon harvest from micropillar array after pre-incubation in ROCK inhibitor; assay type: cell-based, human; conditions: FIGS. 8F, 8G; pre-incubation of aOBBs (50 uM, 1 hour)
# Experimental: FIGS. 8A-8G depict scalable generation of cellularly aligned, anisotropic organ building blocks (OBBs). […] Scale bars, top: 200 μm, bottom: 20 μm. (FIG. 8B) Fourier analysis used to quantify the high degree of sarcomere alignment. (FIG. 8C) Without capped ends, aOBBs slide off micro-pillars overtime. (FIG. 8D) aOBB force generation on Day 3. n=5 separate passages. […] Scale bars, 1000 μm. In order to prevent aOBB compaction upon removal from pillars, the aOBBs may be pre-incubated in 50 uM rock inhibitor (Y-27632) for a period of time, such as, e.g., 1 hour. Second, 1 mL of 10% gelbrin (w/v) solution is prepared in DMEM/F12 (Gibco). Third, DMEM High Glucose+10% FBS is supplemented with 50 μM […] (Biogems). Fourth, 100 U/mL thrombin solution is prepared in DMEM High Glucose+10% FBS. All ECM and media solutions were held at 37° C. using a hotplate. […] After 1 h, the aOBBs were harvested manually using a P1000 pipette with wide-bore tips. The wide-bore tips were treated with 3% bovine serum albumin (BSA) to prevent adsorption of the aOBBs. aOBBs were collected three wells at a time and transferred into a single 50 mL tube. Upon collection, the aOBBs were allowed to settle under gravity for 5 min. After the supernatant was aspirated, the volume (x mL) of compacted aOBBs was estimated. We subsequently wash compacted aOBBs in 3× volume of gelbrin bioink. […]
# [2] = system: aOBBs (anisotropic organ building blocks of hiPSC-CMs and hNDFs); test: aOBB contraction (force generation on micro-pillars) with ROCK inhibitor and after washing; assay type: cell-based, human; conditions: FIG. 8E, n=10 aOBBs from 1 passage
# Text: FIGS. 8A-8G depict scalable generation of cellularly aligned, anisotropic organ building blocks (OBBs). […] Scale bars, top: 200 μm, bottom: 20 μm. (FIG. 8B) Fourier analysis used to quantify the high degree of sarcomere alignment. (FIG. 8C) Without capped ends, aOBBs slide off micro-pillars overtime. (FIG. 8D) aOBB force generation on Day 3. n=5 separate passages. […] Scale bars, 1000 μm. FIGS. 14A-14C depict contractile force measurements for aligned cardiac tissues. Force measurements are quantified using Euler-Bernoulli beam theory. Image and schematic representations of (FIG. 14A) micro- and (FIG. 14B) macro-pillars were quantified using an Instron. Micro- and macro-pillar dimensions were measured from high resolution images recorded across 20 independent samples. (FIG. 14C) The material and geometric information were combined to numerically estimate cantilever spring constants and translate pillar displacement to force generation. Based upon the total concentration of iPSC-CMs, an appropriate volume of 1× rat tail collagen I (Corning) solution was prepared on ice. An appropriate volume of collagen I is calculated based upon a desired final concentration of 1.25 mg/mL. Then y/100 mL of 250 mM CaCl2, ˜x/40 mL of 1 N NaOH, and y mL of collagen I are added, in order, to the basal DMEM high glucose media. […]
compound,measurement,setting,value
C[C@@H](N)[C@H]1CC[C@H](C(=O)Nc2ccncc2)CC1 [Y-27632],effect on aOBB compaction upon harvest,[1],blunts compaction upon harvest from micropillar array
same,recovery of aOBB contractile function,[2]; after washing out ROCK inhibitor,Full contractile function is recovered after washing
same,effect on aOBB contraction,[2]; during exposure to ROCK inhibitor,temporarily blunts aOBB contraction
